According to PMC11054303, “Design and Synthesis of Novel N-Benzylidene Derivatives of 3-Amino-4-imino-3,5-dihydro-4H-chromeno[2,3-d]pyrimidine under Microwave, In Silico ADME Predictions, In Vitro Antitumoral Activities and In Vivo Toxicity” (Pharmaceuticals, 2024):
“Also recorded” adds a separate entry of the source.

How the values were obtained:
[1] = test system: Store-Operated Ca^+2 Entry (SOCE); test: SOCE and Ca2+ release assay in B cell line (PLP cell line); format: cell-based; conditions: same protocol
Method: Thapsigargin (TG), an inhibitor of endoplasmic reticulum Ca^+2-ATPase, is used to deplete intracellular calcium stores in a Ca^+2-free solution and therefore activate SOCE. […] In the context of a preliminary exploration of the functional effects of our molecules of interest and in the absence of a significant inhibition at a low concentration of compound 10h on the reference cell line we used (HEK293) no further exploration of the modulatory effect of this compound on cancer cell lines was initiated.

Caco2 = test: Antiproliferative assay, Caco2; format: cell-based, human; conditions: Homo sapiens, Caco-2; 48 h incubation; average of three assays, standard error ± 0.5 μM
Fibroblasts = test: Antiproliferative assay, diploid skin fibroblasts (normal cells); format: cell-based; conditions: Fibroblast; 48 h incubation; average of three assays, standard error ± 0.5 μM
Method: (§1) The potential antiproliferative activity of these novel 3-(N-phenylmethyliden)amino-4-imino-3,5-dihydro-4H-chromeno[2,3-d]pyrimidine 10(a-i) and 10-(N-phenylmethyliden)amino-11-imino-11H-naphto[1′,2′:5,6]pyrano[2,3-d]pyrimidine 10(j-l) was evaluated in a panel of eight tumoral cell lines and in diploid skin fibroblasts used as normal cell lines for control. For these antitumor assays, chosen cell lines represent diverse types of human cancer, which are, respectively, human hepatocellular carcinoma (Huh7 D12), human colon adenocarcinoma (Caco2), human breast adenocarcinoma (MDA-MB231), MDA-MB468 for human breast carcinoma which correspond to the Triple Negative Breast Cancer (TNBC), human colon carcinoma (HCT116), PC3 as cell line initiated from bone metastasis of grade IV prostatic adenocarcinoma from a person, MCF7 as breast cancer line isolated from a person and PANC1, as human pancreatic cancer cell line. The potential antiproliferative activity was preliminarily evaluated in vitro at a 25 μM single dose.
(§2) The IC50 was calculated from the full dose-response curve and used as a parameter for the antiproliferative activity of the new compounds.
(§3) Skin diploid fibroblastic cells were provided by BIOPREDIC International Company (Rennes, France). Huh-7D12 (Ref ECACC: 01042712), Caco2 (Ref ECACC: 86010202), MDA-MB-231 (Ref ECACC: 92020424), MDA-MB-468, HCT-116 (Ref ECACC: 91091005), PC3 (Ref ECACC: 90112714), and MCF7 cell lines were obtained from the ECACC collection. PANC1 cell lines, a generous gift of LBAI Inserm 1227 (Brest, France). Cells were grown according to ECACC recommendations in DMEM for Huh-D12, MDA-MB-231, MDA-MB-468 and fibroblast, in EMEM for Caco2, in McCoy’s for HCT-116 and RPMI for PC3 at 37 °C and 5% CO2. All culture media with 10% of FBS, 1% of penicillin-streptomycin and 2 mM glutamine.
(§4) Chemicals were solubilized in DMSO at a concentration of 10 mM (stock solution) and diluted in a culture medium to the desired final concentrations. […] The toxicity test of the chemicals on these cells was as follows: 2 × 10^3 cells for HCT-116 cells or 4 × 10^3 for the other cells were seeded in 96-multi-well plates in triplicate and left for 24 h for attachment, spreading and growing. Then, cells were exposed for 48 h to increasing concentrations of chemicals, ranging from 0.1 μM to 25 μM, in a final volume of 120 μL of culture medium. After 48 h of treatment, cells were washed in PBS and fixed in a cooled 90% ethanol/5% acetic acid solution for 20 min. The nuclei were stained with Hoechst 3342 (B2261 Merck Sigma-Aldrich) and counted. Image acquisition and analysis were performed using automated imaging analysis with a Cellomics Arrayscan VTI/HCS Reader (Thermo/Scientific, Waltham, MA, USA). The survival percentages were calculated as the percentage of cell number after chemical treatment over cell number after DMSO treatment. The IC50 was graphically determined.

PC3 = test: Antiproliferative assay, PC3; format: cell-based, human
Method: as §1, §2, §3, §4

HCT 116 = test: Antiproliferative assay, HCT 116; format: cell-based, human
Method: as §1, §2, §3, §4

[2] = test system: zebrafish Danio rerio embryos; test: Angiogenesis of vessels in mCherry transgenic zebrafish embryos; format: in vivo
Source text: Another interest of zebrafish Danio rerio is the possibility to deeply evaluate the effects of angiogenic compounds. In our model, the formation of most vessels is complete, the circulation is present, and the heart is beating after 28 hpf of development. Angiogenesis begins in the somites and in the anterior portion of the embryos. Many zebrafish blood vessels form by angiogenic sprouting and appear to require the same proteins required for blood vessel growth in mammals. By using the mCherry line transgenic zebrafish, it is possible to analyze the direct effect of a compound on the angiogenesis of dorsal vessels. Zebrafish embryos can survive up to a week without an intact circulatory system because defective vessel formation has no immediate lethal effect.
These experiments were performed in four technical replicates.

SMILES: COc1cccc2c1Oc1ncn(/N=C/c3ccccc3O)c(=N)c1C2 [10h, (3E) 3-N-(2-Hydroxyphenylmethylidene)amino-4-imino-9-methoxy-3,5-dihydro-4H-chromeno[2,3-d]pyrimidine]
- inhibitory effects on SOCE and Ca2+ release [1]: without detecting any inhibitory effects on SOCE and Ca^2+ release; also recorded: no inhibitory effects on SOCE and Ca^+2 release
- IC50 (Caco2): 300 nM
- IC50 (Fibroblasts): > 25000 nM
- IC50 (PC3; Homo sapiens, PC-3, 48 h incubation, average of three assays, standard error ± 0.5 μM): 240 nM
- Selectivity Index (SI) PC3 (PC3; SI = IC50 fibroblasts/IC50 on PC3): > 104.2
- IC50 (HCT 116; Homo sapiens, HCT-116, 48 h incubation, average of three assays, standard error ± 0.5 μM): 240 nM
- Selectivity Index (SI) HCT 116 (HCT 116; SI = IC50 fibroblasts/IC50 on HCT 116): > 104.2
- effect on vessel angiogenesis ([2]; 5 μM dose at 72 hpf): no angiogenic effect; also recorded: cannot observe an anti-angiogenic effect; also recorded: without delay in vessel angiogenesis
- effect on vessel angiogenesis ([2]; 48 and 72 hpf treatment, up to 5 μM): without delay in vessel angiogenesis
